The values that follow come from patent US20060193776A1, “Screening methods employing zebrafish and the blood brain barrier” (priority 2004, published 2006).

In one series the test system is zebrafish. In words: DMSO tolerance of zebrafish. The series is classed as in vivo. The note with it: added to the fish water. From the text:
Zebrafish are also DMSO (dimethyl sulphoxide) tolerant. This is important as DMSO is used as a solvent to dissolve many drugs. The inventors have established that zebrafish can tolerate 1% DMSO. Thus, a candidate drug or other test substance may be dissolved in DMSO and administered to zebrafish by adding to the fish water to give a final concentration of DMSO of at least up to 1%. This is employed in various preferred aspects and embodiments of the present invention.

For series [1] the following is noted: rodents; cited from earlier work.
Series [2] has as its system blood brain barrier of zebrafish larvae. In words: Dye exclusion experiments: dye injected into pericardial region, fluorescence intensity in the brain quantified. The method, then: Evans Blue dye (961 Da) was used to investigate the presence of BBB in zebrafish larvae. […] In rodents, Evans Blue leakage is observed following brain trauma.
1) 2% Evans Blue in 0.9% saline was injected into pericardial sac of larvae from 2 days post-fertilisation (d.p.f.) to 1 month old. 0.9% saline was injected as a control.
2) The larvae were left to develop for 6 hours to allow the dye to penetrate from bloodstream into tissues.
3) The larvae were viewed under fluorescent dissecting scope (TRITC filter) to ensure that dye was present in blood vessels.
5) They were embedded in O.C.T. (Optimal Cutting Temperature compound) and 10 μm frozen sections were taken in parasaggital plane.
6) Midline sections were viewed on fluorescent microscope (TRITC filter) at ×40 magnification. Images were taken of Evans Blue injected and saline injected samples.
7) Fluorescent intensity was measured in 3 regions of control and Evans Blue injected samples using AnalySis software. Mean fluorescent intensity was calculated for each age group.
Injection stocks of 2% evans blue in 0.9% saline and a 10% sodium fluorescein in 0.9% saline were prepared and stored at 4° C. Larvae were anaesthetised by immersion in 0.2 mg/ml 3-amino benzoic acid (MS222) prior to being immobilised and oriented in 3% methyl cellulose in embryo medium in a lateral position such that the heart was accessible. Larvae and juveniles from 2 days post-fertilisation (d.p.f.) to 30 d.p.f. were injected into the pericardial region with 0.5 to 2 nl of dye or saline control, depending on age, using standard zebrafish egg microinjection apparatus (Westerfield, 1995). Fish were transferred to fresh embryo medium to recover from anaesthesia, then viewed using a fluorescence dissecting microscope at 1 hour intervals to determine the time of uptake of the dye into the circulation and the time at which dye had permeated from the circulation into non-vascular body tissue. Dye and saline injected larvae were anaesthetised at 4 hours and 6 hours after injection and fixed in 4% paraformaldehyde in PBS. 10 larvae per age group and injection treatment were embedded in Sakura Tissue-Tek OCT Compound (Bayer, Newbury, UK) and frozen parasagittal sections were cut at 10 μm thickness.
Sections were visualised without mounting medium by fluorescence microscopy on an Olympus BX51 microscope. Three midline sagittal sections from each larva were identified and images were captured using a ColorView camera (Olympus) and AnalySis software (Soft Imaging System). The fluorescence intensity within the brain was quantified for each midline section of each larva in each treatment group using colour threshold and area measurements in AnalySis. Mean values, standard deviations and T-tests were calculated using Excel software (Microsoft Office).

The conditions of series [3]: clinical, humans; cited from earlier work.
The conditions of series [4]: mammals; cited from earlier work.

Regarding `C[S+](C)[O-]` [DMSO, dimethyl sulphoxide], the “concentration tolerated by zebrafish” value with zebrafish was found to be 1%.

Consider `Cc1cc(-c2ccc(/N=N/c3ccc4c(S(=O)(=O)O)cc(S(=O)(=O)O)c(N)c4c3O)c(C)c2)ccc1/N=N/c1ccc2c(S(=O)(=O)O)cc(S(=O)(=O)O)c(N)c2c1O` [Evans Blue], for which, in series [1], the “exclusion from the brain” value is listed as “excluded from the brain if the BBB is intact”. The “fluorescence in the brain” value in series [2] (3 d.p.f., dye injected into pericardial sac, 6 hours) was “High level of fluorescence in the brain”. Moreover, the “brain fluorescence compared with saline injected samples” value in series [2] (5 d.p.f., dye injected into pericardial sac, 6 hours) is listed as “no different from saline injected samples”. Also, in series [2] (FIG. 2, days post-fertilisation), the “change of fluorescent intensity in the brain with age” value is reported as “age dependent decrease”. Further, the “day from which excluded from the brain” value in series [2] (peripheral injection) amounted to 5 days.

On to `O=C(O)COCCN1CCN(C(c2ccccc2)c2ccc(Cl)cc2)CC1` (stereo not drawn) [cetirizine], for which the “sedating or non-sedating antihistamine” value in series [3] is “non-sedating”.

Consider `Clc1ccc2c(c1)CCc1cccnc1C2=C1CCNCC1` [desloratadine], for which the “crosses the BBB” value in series [4] is “does not cross the BBB”.

As for `OCCOCCN1CCN(C(c2ccccc2)c2ccc(Cl)cc2)CC1` (stereo not drawn) [hydroxyzine], in series [3], the “sedating or non-sedating antihistamine” value is “sedating”.

For `CCOC(=O)N1CCC(=C2c3ccc(Cl)cc3CCc3cccnc32)CC1` [loratadine], in series [3], the “sedating or non-sedating antihistamine” value was “non-sedating”.

In the case of `O=C([O-])c1ccccc1-c1c2ccc(=O)cc-2oc2cc([O-])ccc12.[Na+].[Na+]` [sodium fluorescein], in series [2] (peripheral injection), the “day from which excluded from the brain” value turned out to be 10 days and the “day until which it permeates into the brain” value is 8 days. Also, in series [2] (peripheral injection, versus saline controls), the “age at which fluorescent intensity in the brain decreases sharply (exclusion from the brain)” value was 10 d.p.f.

Turning to `Cc1ccc(/C(=C\CN2CCCC2)c2ccccn2)cc1` [triprolidine], the “sedating or non-sedating antihistamine” value in series [3] is reported as “sedating”.

In the case of rhodamine 123, the “age at which fluorescent intensity in the brain decreases sharply (exclusion from the brain)” value in series [2] (zebrafish, in vivo) stood at 8 d.p.f.
